Test results taken from ChEMBL document CHEMBL3046051, “A novel approach to the synthesis of 1,2,3-triazoles and their SAR studies” (2010).

Experiments:
Assay type in all cases: functional
[1] = tested on: Candida albicans; test: Antifungal activity against Candida albicans 227 by paper disk method
[2] = tested on: Aspergillus niger; test: Antifungal activity against Aspergillus niger 281 by paper disk method
[3] = tested on: Aspergillus flavus; test: Antifungal activity against Aspergillus flavus 871 by paper disk method
[4] = tested on: Wickerhamiella azyma; test: Antifungal activity against Candida azyma 1452 by paper disk method
[5] = tested on: Candida albicans; test: Antifungal activity against Candida albicans 227 by paper disk method relative to voriconazole
[6] = tested on: Aspergillus flavus; test: Antifungal activity against Aspergillus flavus 871 by paper disk method relative to voriconazole
[7] = tested on: Aspergillus niger; test: Antifungal activity against Aspergillus niger 281 by paper disk method relative to voriconazole
[8] = tested on: Wickerhamiella azyma; test: Antifungal activity against Candida azyma 1452 by paper disk method relative to voriconazole

SMILES	inhibition zone (IZ) [1] [mm]	inhibition zone (IZ) [2] [mm]	inhibition zone (IZ) [3] [mm]	inhibition zone (IZ) [4] [mm]	inhibition (INH) [5] [%]	inhibition (INH) [6] [%]	inhibition (INH) [7] [%]	inhibition (INH) [8] [%]
C[C@@H](c1ncncc1F)[C@](O)(Cn1cncn1)c1ccc(F)cc1F [VORICONAZOLE]	16	18	15	15				
C=CN1C(C)=C(C(C)=O)NN1c1cccc([N+](=O)[O-])c1					-6.25	13.33	-33.33	0
C=CN1C(C)=C(C(C)=O)NN1c1ccc(O)cc1					25	46.67	16.67	33.33
C=CN1C(C)=C(C(C)=O)NN1c1cccc(O)c1					18.75	40	11.11	26.67
C=CN1C(C)=C(C(C)=O)NN1c1ccc(OC)cc1					-37.5	-20	-44.44	-33.33
C=CN1C(C)=C(C(C)=O)NN1c1ccc([N+](=O)[O-])cc1					0	20	-27.78	6.67
C=CN1C(C)=C(C(C)=O)NN1c1ccc(C)cc1					-56.25	-40	-66.67	-53.33
C=CN1C(C)=C(C(C)=O)NN1c1cccc(OC)c1					-43.75	-26.67	-50	-40
C=CN1C(C)=C(C(C)=O)NN1c1cccc(C)c1					-62.5	-46.67	-72.22	-60
C=CN1C(C)=C(C(C)=O)NN1c1ccc(C(=O)O)cc1					6.25	33.33	-11.11	6.67
C=CN1C(C)=C(C(C)=O)NN1c1ccc(Cl)cc1					-87.5	-66.67	-94.44	-80
C=CN1C(C)=C(C(C)=O)NN1c1ccccc1					-31.25	-13.33	-33.33	-26.67
C=CN1C(C)=C(C(C)=O)NN1c1cccc(Cl)c1					-93.75	-73.33	-100	-86.67
